The record followed here is US9649306B2, “Treatment of diseases through administration of N-[5-(3,5-difluoro-benzyl)-1H-indazol-3-yl]-4-(4-methyl-piperazin-1-yl)-2-(tetrahydro-pyran-4-ylamino)-benzamide” (NERVIANO MEDICAL SCIENCES S.R.L., priority 2012, dated 2017).

The data set is described as follows: Hygroscopicity test by Dynamic Vapour Sorption (DVS 1000, SMS). The settings on record: for hygroscopicity (in words): DVS, 0-90% RH at 25° C. It is filed as physicochemical. The text has this:
The observed water uptake was investigated by submitting a sample of such substances to a hygroscopicity test by means of a DVS 1000 (SMS). The apparatus is a “controlled atmosphere microbalance” where the weighed sample is exposed to programmed variations of the relative humidity (RH) at a constant and controlled temperature. The measured parameters (weight, time and RH), reported in Excel worksheets, allow obtaining hygroscopicity curves over the tested RH range. For example, sorption/desorption cycles between 0% and 90% RH can be performed at controlled temperature of 25° C. Progressive variations of RH can be, for example, of 10% and 3% and are operated by the software at the equilibration of the sample weight. This condition can be defined at a constant rate of percent weight variation such as, for example, 0.005%/min. FIG. 6 reports the DVS profiles of the amorphous form, crystalline form 1 and crystalline form 2 of the compound of formula (I). Relative Humidity (RH, %) values are reported on the x-axis while Change in Mass (%) is reported on the y axis. The curves are related to the sorption step between 0% RH and 90% RH at 25° C.

Setting [1] is: DVS sorption step, 25° C./90% RH.

Entries after “also recorded” stand apart in the source; their conditions may differ.

`CN1CCN(c2ccc(C(=O)Nc3n[nH]c4ccc(Cc5cc(F)cc(F)c5)cc34)c(NC3CCOCC3)c2)CC1` [crystalline form 2, N-[5-(3,5-Difluoro-benzyl)-1H-indazol-3-yl]-4-(4-methyl-piperazin-1-yl)-2-(tetrahydro-pyran-4-ylamino)-benzamide]: the “hygroscopicity (in words)” value is listed as “low hygroscopicity”. The water uptake under setting [1] is recorded as 0.2%.
With `CN1CCN(c2ccc(C(=O)Nc3n[nH]c4ccc(Cc5cc(F)cc(F)c5)cc34)c(NC3CCOCC3)c2)CC1` [crystalline form 1, N-[5-(3,5-Difluoro-benzyl)-1H-indazol-3-yl]-4-(4-methyl-piperazin-1-yl)-2-(tetrahydro-pyran-4-ylamino)-benzamide], the “hygroscopicity (in words)” value is reported as “low hygroscopicity”. This compound showed a water uptake under setting [1] of 0.6%.
Regarding `CN1CCN(c2ccc(C(=O)Nc3n[nH]c4ccc(Cc5cc(F)cc(F)c5)cc34)c(NC3CCOCC3)c2)CC1` [amorphous form, N-[5-(3,5-Difluoro-benzyl)-1H-indazol-3-yl]-4-(4-methyl-piperazin-1-yl)-2-(tetrahydro-pyran-4-ylamino)-benzamide], the “hygroscopicity (in words)” value is “higher hygroscopicity than the crystalline forms 1 and 2; also recorded: hygroscopic solid”. Further, the water uptake result (DVS at 25° C., from RH values lower than 30% RH) is listed as “greater than 1%”. Moreover, under setting [1], the water uptake came to 2.5%.
